Experimental data as given in patent US10675286B2, “Heterocyclic compounds and uses thereof” (Infinity Pharmaceuticals, Inc., priority 2014, dated 2020).
Entries after “also recorded” stand apart in the source; their conditions may differ. Like-named read-outs stand apart in the source and are kept apart here.

Legend:
M2 macrophage markers = test: M2 macrophage marker expression with or without PDL-1 antibody (FIG. 42); format: in vivo
P-GP (P-glycoprotein 1) = P-GP (P-glycoprotein 1) (Homo sapiens (Human), UniProt P08183); test: P-gp inhibition; format: in vitro ADME
Human hep = Human hep viability (ADME characteristics, Table 25); format: cell-based
Farage cell line = test: Combination isobologram in Farage cell line; format: cell-based; settings: combination of Compound AA and Compound BB
[1] = tested on: CXCL12-induced T cell migration; test: CXCL12-induced T-cell migration in CLL PBMCs (transwell); format: cell-based; settings: Homo sapiens
Description: Specifically, the material used were media (RPMI+0.5% Fetal Bovine Serum+Pen/Strep), total CLL PBMCs (AllCells), CoStar 24-transwell plates ([…]) #3421, BD Cytofix Fixation Buffer (#554655), BD FBS Stain Buffer (BD Biosciences, 554656), Deep 96-well plate (Axygen, P-2ML-SQ-C), rhCXCL12 (R&D, 350-NS-050), CD-19 APC Cy7 (BD #348794 1:20), CD3-PerCPCy5.5 (BD #560835, 1:20), CD5-PE (Biolegend #300608, 1:5), CD4-FITC (BD #561842, 1:20), and CD8-APC (BD #561953, 1:20).
Total CLL human PBMCs were preincubated with Compound AA or BB in media for 45 minutes at 37° C. […] After the 45 minutes of compound preincubation, 500-750K CLL PBMCs were placed in the upper chamber of the transwell insert in a total volume of 100 uL. The cells were allowed to migrate for 2-4 hours at 37° C. The inserts were removed, and 550 uL media from lower chamber were transferred into a deep 96-well plate. The cells were spun at 1280 rpm for 5 minutes and flick media. The cells were resuspended in 400 uL BD Cytofixation buffer and incubated at RT for 10 minutes. 1 mL BD FBS stain buffer was added. The cells were spun at 1280 rpm and fixation buffer was disposed. The cells were resuspended in 100 uL of CD3,4,8,5,19 antibody cocktail made up in BD FBS stain buffer, which was then incubated at room temperature in the dark for 30-60 minutes. 1 mL BD FBS stain buffer was added to each well, which was then spun and flicked. The cells were resuspended in 150 uL FBS stain buffer and transferred to FACS tubes already containing 150 uL FBS stain buffer. Each sample was read on the FACS for 25 seconds. Gate on CD3, 4, 8 and CD19/5 subpopulations individually and calculate average migration index from triplicate samples. See e.g., Borge et al., haematologica 2010, 95(5): 768-775; de Rooij et al., Blood 2012, 119: 2590-2594.

MC38 tumor cells = test: MC38 colon cancer model; format: in vivo, mouse
Description: In this model, a syngeneic colon cancer cell line is run subcutaneously. The experimental setup was as follows.
The cell injection volume was 0.05 ml per mouse. When tumors reached an average size of 80-100 mm^3, a pair match was made and treatment began. The tumor was measured by caliper biweekly.
The dosing volume was 5 mL/kg.
For all animals, blood was collected by terminal cardiac puncture under isoflurane anesthesia. The blood was processed for plasma. In addition, tumor samples were collected.
At study end, tumors were isolated, fixed in 10% neutral buffered formalin and embedded in paraffin for histologic analysis. […] T-cells within the tumor sections were identified utilizing a CD3-specific antibody via automated immunohistochemistry equipment (Ventana). Once stained, slides were digitalized via Aperio slide scanning equipment. Next, stained tumor sections were quantified via Definians software to assess the percentage of CD3 positive cells within each tumor.

[2] = Stability in simulated gastric fluid; format: physicochemical; settings: 38° simulated gastric fluid
Text: The phyiscochemical properties of Compound BB are drug-like, and suitable for use of the compound as a drug.

[3] = tested on: collagen induced arthritis; test: Rat collagen induced arthritis (CIA) model
Cytochrome P450 isoforms = test: Cytochrome P450 inhibition (ADME characteristics, Table 25); format: in vitro ADME; settings: main Cytochrome P450 isoforms
Text: These properties indicate the compound's suitability for in vivo administration.

LLC tumor brei = LLC tumor brei model, immune cells in tumors; format: in vivo
TMD8 cell line = test: Combination isobologram in TMD8 cell line; format: cell-based; settings: combination of Compound AA and Compound BB
[4] = Oral pharmacokinetics of Compound BB in rat; format: in vivo; settings: 7.5 mg/kg oral
Text: Compound BB's oral exposure is high in rat, dog and monkey. Good oral bioavailability and low clearance in rodent and non-rodent animal species results in high oral exposure.

[5] = Tumor growth, Compound BB alone and with 5-FU (FIG. 35); format: in vivo
4T1 breast cancer = test: Subcutaneous 4T1 breast cancer model; format: in vivo
Lewis Lung Carcinoma = Lewis Lung Carcinoma (LLC) tumor brei model; format: in vivo, mouse
Description: LLC Lewis Lung carcinoma model: LLC cells are derived from a spontaneous lung tumor from a C57BL/6 mouse and can be studied as a s.c. tumor when injected in the flank, or as an orthotopic tumor if injected i.v., following which it localizes to the lung.
Compound BB was tested in the Lewis Lung Carcinoma model, which is known in the art and briefly described hereinabove.
LLC tumor brei model was prepared and injected subcutaneously into a mouse in the hind flank region. The tumor brei was prepared as follows. LL2-Luc tumor cells were grown in culture in DMEM+10% FBS. Cells were implanted @ 1×10^6 cells/100 uL SC in the flank of C57 Albino mice (male) When tumors reached 1000 mm3, tumors were harvested. Only the white, living tissue was harvested. Any material containing visable blood or necrotic area was isolated away from the tumor tissue. Tumor tissue was placed in a Dounce tissue homoginized with 5 mLs of warm DMEM (no FBS). About 1-2 grams of tumor tissue was collected, homogenized, pooled into 50 mL falcon tube, and cells were counted. Cells were spinned @ 12,000 RPM, and FBS was pooled off. Cells were resuspended to equal 1×10^7 cells/mL with sterile PBS. 100 uL of cells/mouse SC at the hind flank region were implanted. This process was repeated one more time before conducting brei tumor efficacy study.
Flow cytometry was performed to obtain a more extensive cellular subset analysis. In particular, the study examined T cell vs. Myeloid cells, Myeloid cell subsets, Regulatory vs. effector T cells, and Tumor markers vs. WBC (e.g., PD-L1 expression on tumor).
Different populations of tumor-associated myeloid cells can be identified by flow cytometry, e.g., monocytic immature myeloid cells (iMC), Granulocytic iMCs/Neutrophils, Tumor Associated Macrophages (TAMs), and Granulocytic MDSCs. The different populations, and panels for detecting MDSCs, are described in Cancer Discovery 2011; 1:54-67. Tumors may vary in their myeloid cell composition.

[6] = In vitro toxicology studies
[7] = Dose-exposure proportionality (FIG. 44); settings: in vivo

P-GP (P-glycoprotein 1), sequence (P08183 whole entry, species assumed): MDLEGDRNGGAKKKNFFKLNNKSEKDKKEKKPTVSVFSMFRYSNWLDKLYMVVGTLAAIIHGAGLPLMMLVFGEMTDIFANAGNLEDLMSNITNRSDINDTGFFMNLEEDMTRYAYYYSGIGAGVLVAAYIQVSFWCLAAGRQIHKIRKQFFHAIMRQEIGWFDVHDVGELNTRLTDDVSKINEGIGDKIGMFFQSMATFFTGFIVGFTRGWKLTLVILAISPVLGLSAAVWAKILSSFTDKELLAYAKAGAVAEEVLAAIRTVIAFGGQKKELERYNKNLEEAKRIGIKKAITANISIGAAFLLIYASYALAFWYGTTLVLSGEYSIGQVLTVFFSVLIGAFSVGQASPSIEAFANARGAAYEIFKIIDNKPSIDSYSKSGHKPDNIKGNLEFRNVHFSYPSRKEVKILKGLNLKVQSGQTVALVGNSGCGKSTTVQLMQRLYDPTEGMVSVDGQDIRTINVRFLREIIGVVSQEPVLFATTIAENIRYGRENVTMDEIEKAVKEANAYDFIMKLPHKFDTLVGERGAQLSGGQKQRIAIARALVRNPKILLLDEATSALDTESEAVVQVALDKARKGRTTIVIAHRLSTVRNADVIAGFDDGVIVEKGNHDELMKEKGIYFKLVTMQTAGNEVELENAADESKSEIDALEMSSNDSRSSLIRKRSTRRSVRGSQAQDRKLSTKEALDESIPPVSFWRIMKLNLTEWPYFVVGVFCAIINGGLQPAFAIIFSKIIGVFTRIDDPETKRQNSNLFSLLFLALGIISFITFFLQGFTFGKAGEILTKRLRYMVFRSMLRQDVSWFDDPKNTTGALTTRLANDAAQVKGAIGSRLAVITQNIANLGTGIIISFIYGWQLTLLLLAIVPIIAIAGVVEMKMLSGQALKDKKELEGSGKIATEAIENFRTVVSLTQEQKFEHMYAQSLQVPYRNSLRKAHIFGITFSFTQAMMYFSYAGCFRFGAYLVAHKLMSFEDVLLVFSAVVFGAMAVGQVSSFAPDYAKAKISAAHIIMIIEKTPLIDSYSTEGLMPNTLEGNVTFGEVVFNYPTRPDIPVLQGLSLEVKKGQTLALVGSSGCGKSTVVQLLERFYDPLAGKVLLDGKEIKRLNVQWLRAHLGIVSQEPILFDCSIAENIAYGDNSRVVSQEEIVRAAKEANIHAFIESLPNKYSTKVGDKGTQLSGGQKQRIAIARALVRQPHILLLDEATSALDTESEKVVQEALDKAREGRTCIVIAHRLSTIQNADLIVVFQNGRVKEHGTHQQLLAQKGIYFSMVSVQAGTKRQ

Structure (SMILES): C[C@H](NC(=O)c1c(N)nn2cccnc12)c1cc2cccc(C#Cc3cnn(C)c3)c2c(=O)n1-c1ccccc1 [Compound BB]
- M2 macrophage marker ARG-1 (M2 macrophage markers): reduced
- M2 macrophage marker VEGF (M2 macrophage markers): reduced
- P-GP (P-glycoprotein 1) inhibition (P-GP (P-glycoprotein 1)): appears to be an inhibitor of P-GP
- IC50 (Human hep): 10000 to 25000 nM
- effect of the combination (isobologram) (Farage cell line): synergistic effect
- EC50 ([1]; T-cell subset CD3+, read-out: EC50 (nM), CXCL12 induced T-cell migration): 17 ± 17 nM
- EC50 ([1]; T-cell subset CD4+, read-out: EC50 (nM), CXCL12 induced T-cell migration): 20 ± 21 nM
- EC50 ([1]; T-cell subset CD8+, read-out: EC50 (nM), CXCL12 induced T-cell migration): 13 ± 15 nM
- EC50 ([1]; read-out: EC50, inhibition of CXCL12-induced CD3+ T cell migration (FIG. 8)): 10 nM
- Tumor growth (FIG. 29A) (MC38 tumor cells; MC38, monotherapy): significantly inhibited tumor growth
- Intratumoral CD3+ T cells (FIG. 30) (MC38 tumor cells; MC38 tumors, vs vehicle): significantly more intratumoral CD3+ T cells
- Stability in simulated gastric fluid [2]: > 4 h
- ED50 ([3]; Rattus norvegicus): 2.13 mg/kg
- Mean ankle diameter (FIG. 1) ([3]; rat CIA, day 9 to day 17): has therapeutic effects
- CYP inhibition (Cytochrome P450 isoforms): does not substantially inhibit CYP; also recorded: low potential for reversible inhibition
- CD206+ M2 polarized suppressive macrophages (LLC tumor brei): reduces
- TAMs in tumor (LLC tumor brei): decreased
- effect of the combination (isobologram) (TMD8 cell line): synergistic effect
- Oral exposure (plasma concentrations within 24 hours, FIG. 43) [4]: high
- tumor growth ([5]; Compound BB alone): reduction in tumor growth
- tumor growth ([5]; co-administration of Compound BB and 5-FU): further reduction
- tumor growth (4T1 breast cancer; co-administration with docetaxel, paclitaxel, or 5-FU): further reduction in tumor growth
- activity in subcutaneous 4T1 breast cancer model (4T1 breast cancer; single agent): single agent activity
- Number of infiltrating TAMs (flow cytometry, FIG. 38A) (Lewis Lung Carcinoma): the number of infiltrating TAMs was decreased
- Tumor growth (FIGS. 25A and 25B) (Lewis Lung Carcinoma; single agent): demonstrated single agent activity
- CD206 staining (M2 macrophages, FIG. 39) (Lewis Lung Carcinoma; vs control): CD206 staining was reduced
- In vitro toxicology [6]: expected to have very low toxicity
- dose-exposure relationship [7]: dose-exposure proportionality
